Assays:
HeLa = experiment: MTT cytotoxic assay, HeLa; type: cell-based; conditions: Homo sapiens, 48 h of treatment
Experimental: (§1) Two human prostate cancer cell lines LNCaP and PC3 are maintained in RPMI1640 (Sigma Chemical Company, St. Louis, Mo., USA) supplemented with 10% fetal bovine serum (HyClone). Hepatocellular carcinoma cell line Hep G2, epithelial cervical cancer cell line HeLa and nasopharyngeal carcinoma cell line CNE are maintained in DMEM (Invitrogen) supplemented with 10% new-born calf serum (Gibco), 100 U/ml penicillin and 100 μg/ml streptomycin (Invitrogen). All cancer cells are maintained in a humidified atmosphere containing 5% CO2 at 37° C.
(§2) Different cancer cells are seeded in a 96-well plate and pre-incubated for 24 hours before treatment with Guttiferone F (0-50 μM). After 48 h of treatment, 10 μl of MTT solution (5 mg/ml) (Sigma Chemical Company, St. Louis, Mo., USA) are added to each well and incubated for 4 h. The resulting crystals are dissolved in DMSO. The controls include native cells and medium only. The spectrophotometric absorbance at 570 nm is measured using a microplate reader (Synergy HT, Bio-Tek Instruments Inc., Winooski, Vt., USA). The percentage cytotoxicity is calculated by the formula: Percentage cytotoxicity (cell death)=[1-(absorbance of experimental wells/absorbance of control wells)]×100%.

LNCaP cells [1] = experiment: Flow cytometry (PI, FACS) sub-G1 apoptosis; type: cell-based, human; conditions: 10 μM, serum-free medium, 24 h and 48 h
Experimental: Based on the result of the above MTT assay on prostate cancer cell lines, LNCaP cells and 10 μM of Guttiferone F are selected for studying the effect of Guittiferone F on apoptosis of human prostate cancer cells. Before that, LNCaP cells are treated with Guttiferone F at the concentration of 10 μM. Cells are trypsinized and fixed in ice-cold 100% methanol overnight at 4° C. Cells are washed, stained with propidium iodide (PI) for overnight, and subjected to fluorescence activated cell sorting (FACS) analysis on a FAC Scan flow cytometer (BD PharMingen, USA). Data are analyzed using the WinMID software.
To detect the apoptosis, sub-G1 phase cells were measured. Such cells are usually considered to be the result of apoptotic DNA fragmentation. The DNA is degraded by cellular endonucleases, during apoptosis. Therefore, nuclei of apoptotic cells contain less DNA than nuclei of healthy G0/G1 cells, resulting in a sub-G1 peak in the fluorescent histogram that may be used to determine the relative amount of apoptotic cells.

PC3 cells [2] = experiment: PC3 xenograft nude mouse model B, intraperitoneal injection 10 mg/kg; type: in vivo, nude mice; conditions: intraperitoneal injection 10 mg/kg every two days for 18 days; FIG. 5
Experimental: A total of 1×10^6 PC3 cells suspended in 100 μl of PBS and 100 μl of Matrigel are inoculated subcutaneously into the right flank of […] 4-week-old male nude mice. Drug injections are made once the tumors reach an average volume of about 200 mm^3. Mice are divided randomly into two groups of 7 for each group and subjected to intraperitoneal injection of vehicle or 10 mg/kg Guttiferone F every two days for 18 days. Tumor volume is measured by calipers and calculated by V=L×W^2/2. For intratumoral injection, Guttiferone F is prepared in 5% dimethyl sulfoxide, 5% tween 80, and 90% PBS.

LNCaP cells [3] = experiment: Hoechst 33258 / MitoTracker Red confocal microscopy; type: cell-based, human; conditions: treatment for 12 h or 24 h, laser confocal microscopy
Experimental: Hoechst is depicted as blue in the first column of images while MitoTracker Red is depicted as red in the second column of images; double stain of Hoechst 33258 and MitoTacker Red is shown in the third column of images, in which the dotted square in each image represents the area where the part is enlarged; the corresponding enlarged area of the image from the third column is shown in the fourth column.
LNCaP cells (2×10^5) are seeded on 35 mm culture dish and incubated 24 h to allow attachment. After the different treatment of Guttiferone F for 12 h or 24 h, the medium is removed from the dish and the staining solution (50 μg/ml Hoechst 33258 and 1 ng/ml MitoTracker Red in PBS) is added. The fluorescence of the bound dyes is analyzed using a laser scanning confocal microscope (FV10i, Olympus Corporation, Japan).

PC-3 = experiment: MTT cytotoxic assay, PC-3; type: cell-based; conditions: Homo sapiens, 48 h of treatment
Experimental: as §1, §2

LNCaP = experiment: MTT cytotoxic assay, LNCaP; type: cell-based, human
Experimental: as §1, §2

Hep G2 = experiment: MTT cytotoxic assay, Hep G2; type: cell-based; conditions: Homo sapiens, HepG2, 48 h of treatment
Experimental: as §1, §2

PC3 cells [4] = experiment: PC3 xenograft BALB/c nude mice, intraperitoneal GF with or without caloric restriction; type: in vivo; conditions: i.p. 20 mg/kg normally fed, or 10 mg/kg with caloric restriction, versus control; FIG. 6, p<0.01
Experimental: Four-week-old male BALB/c nude mice from the Experimental Animal Center of Chinese Academy of Science (Shanghai, China) are used in this example. Approximately 1×10^6 PC3 cells suspended in 100 μl of PBS and 100 μl of Matrigel are injected subcutaneously into the right side of the animals. One week later, 28 mice bearing tumors around 50 mm^3 in volume are randomly divided into four groups (n=7 per group): Group 1: Control (normally fed, receiving daily i.p. vehicle), Group 2: Caloric restriction (fed with 70% of their normal food intake, receiving daily i.p. vehicle), Group 3: GF (normally fed, receiving daily i.p. 20 mg/kg of GF), and Group 4: GF+caloric restriction (calorie-restricted mice receiving daily i.p. 10 mg/kg of GF). Mice are administered via intraperitoneal injection of vehicle (control) in a form of solvent (0.5% DMSO, 0.5% Tween-80 in saline) and GF at the dose of 10 mg/kg or 20 mg/kg in 200 μl vehicle once every other day. […] Using the conversion formula between animal dose and human dose taught in Regan-Shaw et al. (2007), the daily human dose of GF through intraperitoneal injection is about 1.62 mg/kg to 2.4 mg/kg (corresponding to 20 mg/kg of GF for mouse); the daily human dose of GF under calorie restriction is at least in a range of 0.81 mg/kg to 1.2 mg/kg (corresponding to 10 mg/kg of GF for mouse).

PC3 cells [5] = experiment: PC3 xenograft nude mouse model A, intratumoral injection; type: in vivo, nude mice; conditions: intratumoral injection every two days for 20 days; 20 μM 3 times, then 100 μM; FIG. 4, p<0.05
Experimental: A total of 1×10^6 PC3 cells suspended in 100 μl of PBS and 100 μl of Matrigel (BD Biosciences, Bedford, Mass.) are inoculated subcutaneously (s.c.) into the right flank of six 4-week-old male nude mice. Drug injections are made once the tumors reach an average volume of about 100 mm^3. Mice are divided randomly into two groups of 3 mice in each group and subjected to intratumoral injection of vehicle (control) or […] Guttiferone F every two days for 20 days. (After 20 μM GF for 3 times, the dosage is increased to 100 μM GF). Tumor volume is measured by calipers and calculated by V=L×W^2/2 at different time intervals. For intratumoral injection, […] Guttiferone F is prepared in 5% dimethyl sulfoxide, 5% tween 80, and 90% PBS.

SMILES: C=C(C)[C@H](CC=C(C)C)C[C@@]12C[C@@H](CC=C(C)C)C(C)(C)[C@@](CC=C(C)C)(C(=O)C(C(=O)c3ccc(O)c(O)c3)=C1O)C2=O [Guttiferone F]
- IC50 (HeLa): 13.1 ± 1.32 µM
- apoptosis (sub-G1 phase cells) (LNCaP cells [1]): induce LNCaP cell death by apoptosis significantly
- tumor growth (tumor volume) (PC3 cells [2]): the growth of tumor is not inhibited significantly in 18 days
- change in mitochondria and nucleus DNA (LNCaP cells [3]): DNA fragmentation and mitochondria focus are visualized
- IC50 (PC-3): 12.6 ± 3.01 µM
- IC50 (LNCaP; Homo sapiens, LNCaP, MTT, 48 h of treatment): 5.17 ± 0.2 µM
- selectivity between cell lines in MTT assay (LNCaP; prostate cancer cell lines versus other cell lines, Table 1): more specific to human prostate cancer than the others
- IC50 (Hep G2): 32.9 ± 1.56 µM
- tumor growth (tumor volume) (PC3 cells [4]): tumor growth is significantly less prominent
- tumor growth (tumor volume) (PC3 cells [5]): the growth of tumor is inhibited significantly after 14 days
